The nature of the data set: Comparison of stability: sealed storage at 40° C., HPLC purity. Particulars: for degradation in stability test: sealed storage for 4 days at 40° C. The format is physicochemical. From the text:
The crystalline form A of Bimatoprost of the invention has specific stability, which is favorable for storage. The inventors compare the stability of the crystalline form A prepared by the method of the invention with that of the crystalline form B prepared in the prior art by stability test. […] Degradation products of the crystalline form B include a compound II and a compound III. […] As used herein, the term “HPLC purity” refers to the percentage of peak area of the compound as shown in formula I that is subject to HPLC detection and then area normalization according to the obtained chromatogram in the total peak area. The HPLC detection method is as follows: Chromatographic column: 4.6×150 mm 3 μm C18 column; column temperature: 35° C.; mobile phase: A: acetonitrile: water (20 mM potassium phosphate buffer solution; pH=2.8) 20:80; B: acetonitrile: water (20 mM potassium phosphate buffer solution; pH=2.8) 40:60; gradient elution conditions: A:B=100: 0, 1 min; A:B=100:0-40:60, 16 min; A:B=40:60, 4 min; A:B=40:60-100:0, 1 min. Flow rate: 1 ml/min; main peak retention time: around […]; sample volume 15 μl; column temperature: 35° C.±5° C.; detection wavelength: 210 nm; running time: 40 min. A sample of the crystal A of Bimatoprost prepared by Example 4 was taken (0.8 g; HPLC purity: 99.7%) and divided into 4 parts of equal amount; and the 4 parts were respectively hermetically placed under 40° C. for 1 day, 2 days, 3 days and 4 days and then sampled for analysis, wherein HPLC purity was 99.7%, 99.7%, 99.7% and 99.7% respectively. A sample of the crystal B of Bimatoprost prepared by Example 2 was taken (0.8 g; HPLC purity: 99.6%) and divided into 4 parts of equal amount; and the 4 parts were respectively hermetically placed under 40° C. for 1 day, 2 days, 3 days and 4 days and then sampled for analysis, wherein HPLC purity was 99.4%, 99.2%, 99.1% and 98.7% respectively.

This note sets out measurements from patent publication US8664275B2, “Crystalline form of Bimatoprost, preparation method and use thereof” (Shanghai Techwell Biopharmaceutical Co., Ltd., priority 2009, dated 2014).

Structures are written as SMILES.

In the case of `CCNC(=O)CCC/C=C\C[C@@H]1[C@@H](/C=C/[C@@H](O)CCc2ccccc2)[C@H](O)C[C@@H]1O` [crystalline form A, (Z)-7-[(1R,2R,3R,5S)-3,5-dihydroxyl-2-[(E,3S)-3-hydroxyl-5-phenylpent-1-enyl]cyclopentyl]-N-ethylhept-5-eneamide], the “degradation in stability test” value is “does not degrade”. Moreover, for the setting “hermetically placed under 40° C. for 1 day, listed as crystal A of Bimatoprost”, the HPLC purity was determined as 99.7%. In addition, the HPLC purity (hermetically placed under 40° C. for 2 days, listed as crystal A of Bimatoprost) is on record as 99.7%. For the setting “hermetically placed under 40° C. for 3 days, listed as crystal A of Bimatoprost”, this molecule registered an HPLC purity of 99.7%. The same molecule gave an HPLC purity (hermetically placed under 40° C. for 4 days, listed as crystal A of Bimatoprost) of 99.7%. Besides, the HPLC purity (sample before storage (initial), listed as crystal A of Bimatoprost) is reported as 99.7%.
On to `CCNC(=O)CCC/C=C\C[C@@H]1[C@@H](/C=C/[C@@H](O)CCc2ccccc2)[C@H](O)C[C@@H]1O` [crystalline form B, (Z)-7-[(1R,2R,3R,5S)-3,5-dihydroxyl-2-[(E,3S)-3-hydroxyl-5-phenylpent-1-enyl]cyclopentyl]-N-ethylhept-5-eneamide], for which the “degradation in stability test” value is on record as “obviously degrades”. This molecule also yielded an HPLC purity (hermetically placed under 40° C. for 1 day, listed as crystal B of Bimatoprost) of 99.4%. In addition, where the note is “hermetically placed under 40° C. for 2 days, listed as crystal B of Bimatoprost”, the HPLC purity was 99.2%. The molecule also came in with an HPLC purity (hermetically placed under 40° C. for 3 days, listed as crystal B of Bimatoprost) of 99.1%. Where the note is “hermetically placed under 40° C. for 4 days, listed as crystal B of Bimatoprost”, this molecule returned an HPLC purity of 98.7%. Besides, the HPLC purity (sample before storage (initial), listed as crystal B of Bimatoprost) amounted to 99.6%.
